# Test results published in patent US20040044006A1, “Methods of use of quinolone compounds against pneumococcal and haemophilus bacteria” (priority 1999, published 2004).
# Like-named read-outs stand apart in the source and are kept apart here.
# Tests used:
# [1] = tested on: quinolone-resistant Haemophilus influenzae strains; assay: Microdilution MIC determination in HTM for quinolone-resistant Haemophilus influenzae strains; type: cell-based
# Description: Inocula were prepared from chocolate agar plates incubated for a full 24 hours by the direct colony suspension method as follows: In a tube of Mueller-Hinton broth (Difco), an organism suspension was made to a density of a 0.5 McFarland standard (1×10^8 CFU/ml). The latter inoculum was diluted in sterile saline such that final organisms suspensions in trays yielded colony counts of 3-8×10^5 CFU/ml. Frozen microdilution trays were obtained from MicroMedia Systems, Inc. (Cleveland, Ohio, USA). Each tray contained all antimicrobials prepared in freshly made HTM. Wells were inoculated with 100 μl suspensions and incubated in ambient air at 35° C. for 20-24 hours. The lowest drug concentration showing no growth was read as the MIC. Standard quality control strains, including H. influenzae ATCC 49766, H. influenzae ATCC 49247, Staphylococcus aureus ATCC 29213 and Escherichia coli ATCC 25922 were included with each run.
# [2] = tested on: quinolone susceptible pneumococci (ciprofloxacin MICs ≦4.0 μg/ml); assay: Agar dilution MICs of 207 quinolone susceptible pneumococcal strains; type: cell-based, Streptococcus pneumoniae; settings: Streptococcus pneumoniae, agar dilution; for MIC90: read-out: MIC90; for MIC: read-out: MIC range
# Description: All susceptible, and some intermediate and resistant strains, were recent U.S. isolates. The remainder of intermediate and resistant strains were isolated in South Africa, Spain, France, Central and Eastern Europe, and Korea. […] Additionally these strains were tested for mutations in parC, gyrA, parE, and gyrB (Pan, et al., Antimicrob. Agents Chemother. 40:2321-2326, 1996) and for efflux mechanism (Brenwald, et al., Antimicrob. Agents Chemother. 42:2032-2035, 1998). For time-kill studies, 4 penicillin susceptible, 4 intermediate and 4 resistant strains (2 quinolone resistant) were tested, while for PAE studies 5 quinolone susceptible and 1 resistant strains were studied.
# (§1) Agar dilution methodology was performed on 234 strains as described previously (M. R. Jacobs, Clin. Infect. Dis. 15:119-127, 1992; Jacobs, et al., Rev. Med. Microbiol. 6:77-93, 1995), using Mueller-Hinton agar (BBL Microbiology Systems, Cockeysville, Md.) supplemented with 5% sheep blood. Broth MICs for 12 strains tested by time-kill and 6 tested by PAE were performed according to NCCLS recommendations (Methods for Dilution Antimicrobial Susceptibility Tests for Bacteria that Grow Aerobically, 3rd Edition, NCCLS, Villanova, Pa.) using cation-adjusted Mueller-Hinton broth with 5% lysed defibrinated horse blood. Standard quality control strains, including Streptococcus pneumoniae ATCC 49619, were included in each run of agar and broth dilution MICs.
# pneumococcal strains = assay: Microbroth dilution MICs of strains tested by time-kill and PAE; type: cell-based; settings: Streptococcus pneumoniae, read-out: Microdilution MIC
# Description: as §1
# [3] = strain 1, mutations S133-A N138-S, None, S84-L
# [4] = strain 2, mutations NONE, S458-L, S84-F, None
# [5] = strain 3, mutations S84-I, None, S84-L
# [6] = strain 4, mutations D83-N, S458-S-T459, S84-F D88-N, Q468-R
# [7] = strain 5, mutations E88-K, G405-S, S84-Y, None
# [8] = strain 6, mutations S84-R, D420-N, S84-L A117-E, None
# [9] = strain 7, mutations S84-R, D420-N, S84-L A117-E, None
# [10] = strain 8, mutations S84-R, D420-N, S84-L A117-E, None
# [11] = strain 9, mutations S84-R N138-S, S458-A S474-N, S84-F D88-Y, None
structure (smiles),measurement,setting,value
C[C@@H]1CN(c2c(F)c(N)c3c(=O)c(C(=O)O)cn(C4CC4)c3c2F)C[C@H](C)N1 [Spar],MIC,[1]; [3],0.25 µg/mL
same,MIC,[1]; [4],0.25 µg/mL
same,MIC,[1]; [5],0.5 µg/mL
same,MIC,[1]; [6],0.25 µg/mL
same,MIC,[1]; [7],1 µg/mL
same,MIC,[1]; [8],1 µg/mL
same,MIC,[1]; [9],1 µg/mL
same,MIC,[1]; [10],1 µg/mL
same,MIC,[1]; [11],8 µg/mL
O=C(O)c1cn(C2CC2)c2cc(N3CCNCC3)c(F)cc2c1=O [Cipro],MIC,"[1]; Haemophilus influenzae, strain 1, mutations S133-A N138-S, None, S84-L",0.5 µg/mL
same,MIC,"[1]; Haemophilus influenzae, strain 2, mutations NONE, S458-L, S84-F, None",0.25 µg/mL
same,MIC,"[1]; Haemophilus influenzae, strain 3, mutations S84-I, None, S84-L",1 µg/mL
same,MIC,"[1]; Haemophilus influenzae, strain 4, mutations D83-N, S458-S-T459, S84-F D88-N, Q468-R",1 µg/mL
same,MIC,"[1]; Haemophilus influenzae, strain 5, mutations E88-K, G405-S, S84-Y, None",1 µg/mL
same,MIC,"[1]; Haemophilus influenzae, strain 6, mutations S84-R, D420-N, S84-L A117-E, None",2 µg/mL
same,MIC,"[1]; Haemophilus influenzae, strain 7, mutations S84-R, D420-N, S84-L A117-E, None",2 µg/mL
same,MIC,"[1]; Haemophilus influenzae, strain 8, mutations S84-R, D420-N, S84-L A117-E, None",2 µg/mL
same,MIC,"[1]; Haemophilus influenzae, strain 9, mutations S84-R N138-S, S458-A S474-N, S84-F D88-Y, None",8 µg/mL
Cc1c(F)c(N2CCNC(C)C2)cc2c1c(=O)c(C(=O)O)cn2C1CC1 (stereo not drawn) [Grepa],MIC,[1]; [3],0.25 µg/mL
same,MIC,[1]; [4],0.5 µg/mL
same,MIC,[1]; [5],0.5 µg/mL
same,MIC,[1]; [6],2 µg/mL
same,MIC,[1]; [7],1 µg/mL
same,MIC,[1]; [8],1 µg/mL
same,MIC,[1]; [9],1 µg/mL
same,MIC,[1]; [10],1 µg/mL
same,MIC,[1]; [11],4 µg/mL
"CC1(C)S[C@@H]2[C@H](NC(=O)Cc3ccccc3)C(=O)N2[C@H]1C(=O)O [Penicillin, penicillin G]",MIC50,[2]; Penicillin I strains,0.25 µg/mL
same,MIC90,[2]; Penicillin I strains,1 µg/mL
same,MIC,[2]; Penicillin I strains,0.125 to 1 µg/mL
same,MIC50,[2]; Penicillin R strains,4 µg/mL
same,MIC90,[2]; Penicillin R strains,4 µg/mL
same,MIC,[2]; Penicillin R strains,2 to 16 µg/mL
same,MIC50,[2]; Penicillin S strains,0.016 µg/mL
same,MIC90,[2]; Penicillin S strains,0.03 µg/mL
same,MIC,[2]; Penicillin S strains,0.008 to 0.06 µg/mL
same,MIC,pneumococcal strains; strain 1 (S) penicillin susceptible,0.06 µg/mL
same,MIC,pneumococcal strains; strain 2 (S) penicillin susceptible,0.03 µg/mL
same,MIC,"pneumococcal strains; strain 3 (S) penicillin susceptible, quinolone-resistant",0.016 µg/mL
same,MIC,"pneumococcal strains; strain 4 (S) penicillin susceptible, quinolone-resistant",0.016 µg/mL
same,MIC,pneumococcal strains; strain 5 (I) penicillin intermediate,0.25 µg/mL
same,MIC,pneumococcal strains; strain 6 (I) penicillin intermediate,0.25 µg/mL
same,MIC,pneumococcal strains; strain 7 (I) penicillin intermediate,1 µg/mL
same,MIC,pneumococcal strains; strain 8 (I) penicillin intermediate,0.5 µg/mL
same,MIC,pneumococcal strains; strain 9 (R) penicillin resistant,4 µg/mL
same,MIC,pneumococcal strains; strain 10 (I),2 µg/mL
same,MIC,pneumococcal strains; strain 11 (R) penicillin resistant,4 µg/mL
same,MIC,pneumococcal strains; strain 12 (R) penicillin resistant,4 µg/mL
C[C@@H]1CN(c2c(F)c(N)c3c(=O)c(C(=O)O)cn(C4CC4)c3c2F)C[C@H](C)N1 [Spa],MICs,"[1]; strain 1, GyrA S84→L, ParC S133→A N138→S, GyrB None, ParE None",0.25 µg/mL
same,MICs,"[1]; strain 2, GyrA S84→F, ParC None, GyrB None, ParE S458→L",0.25 µg/mL
same,MICs,"[1]; strain 3, GyrA S84→L, ParC S84→I, GyrB None, ParE None",0.5 µg/mL
same,MICs,"[1]; strain 4, GyrA S84→F D88→N, ParC D83→N, GyrB None, ParE T459→S",0.25 µg/mL
same,MICs,"[1]; strain 5, GyrA S84→Y, ParC E88→K, GyrB Q468→R, ParE G405→S",1 µg/mL
same,MICs,"[1]; strain 6, GyrA S84→L A117→E, ParC S84→R, GyrB None, ParE D420→N",1 µg/mL
same,MICs,"[1]; strain 7, GyrA S84→L A117→E, ParC S84→R, GyrB None, ParE D420→N",1 µg/mL
same,MICs,"[1]; strain 8, GyrA S84→L A117→E, ParC S84→R, GyrB None, ParE D420→N",1 µg/mL
same,MICs,"[1]; strain 9, GyrA S84→F D88→Y, ParC S84→R N138→S, GyrB None, ParE S458→A S474→N",8 µg/mL
C[C@H]1COc2c(N3CCN(C)CC3)c(F)cc3c(=O)c(C(=O)O)cn1c23 [Levo],MIC,[1]; [3],0.5 µg/mL
same,MIC,[1]; [4],0.25 µg/mL
same,MIC,[1]; [5],1 µg/mL
same,MIC,[1]; [6],0.5 µg/mL
same,MIC,[1]; [7],1 µg/mL
same,MIC,[1]; [8],2 µg/mL
same,MIC,[1]; [9],2 µg/mL
same,MIC,[1]; [10],2 µg/mL
same,MIC,[1]; [11],4 µg/mL
